The record followed here is patent EP0294940B1, “Pharmaceutical compositions” (FISONS plc, priority 1987, dated 1988).

The test system of this test is adenosine monophosphate induced bronchoconstriction. As to the kind of experiment: Attenuation of adenosine monophosphate (AMP) induced bronchoconstriction (Example E). It counts as in vivo, Atopic healthy volunteers. Particulars: AMP dose giving a 40% reduction in pEFR, pretreatment inhaled for five minutes from a Wright Nebuliser. The protocol:
Effect of active ingredients A and B, separately and in combination in attenuating adenosine monophosphate induced bronchoconstriction
Atopic healthy volunteers were selected for the study. Prior to the administration of pretreatment, baseline values of forced expiratory volume in one second (FEV₁), partial expiratory flow rate (pEFR) and maximum expiratory flow rate (mEFR) were measured. Measurement was made on at least three occasions or until the readings were stable (less than 5% variation). On each occasion the pretreatment was inhaled for five minutes from a Wright Nebuliser (operating at a flow rate of 7 litres per minute) through the mouth during tidal breathing.
Prior to the commencement of adenosine monophosphate (AMP) challenge FEV₁, pEFR and mEFR were measured. The AMP challenge was performed on each study day by giving doubling doses of AMP, each inhaled for two minutes, from either a Wright Nebuliser (operating at a flow rate of 6.5 litres per minute) or an Acorn Nebuliser (operating at a flow rate of 5.5 litres per minute) until a reduction in pEFR of greater than 40% occurs. The nebuliser chosen for each subject was the same throughout the study. AMP was given in a 1 mg/ml-256 mg/ml concentration range, the diluent being physiological saline. Successive doses were administered at 5 minute intervals. Partial expiratory flow rates were measured at 0.5 and 2.5 minutes after each AMP dose. The dose giving a 40% (PD₄₀) reduction in pEFR was determined by interpolation from a log dose response curve.
The results given in Table 1 were obtained using the procedure of Example E in four volunteers. Ingredient A was nedocromil sodium administered as a 0.5% w/v aqueous solution; ingredient B was atropine methonitrate administered as a 0.2% w/v aqueous solution. The combination was an aqueous solution containing 0.5% w/v nedocromil sodium and 0.2% w/v atropine methonitrate.

As for `CCCc1c2oc(C(=O)O)cc(=O)c2cc2c(=O)cc(C(=O)O)n(CC)c12` [Ingredient A, nedocromil sodium], the PD40 is, setting by setting: (Volunteer 1) 43 mg/mL; (Volunteer 2) 32 mg/mL; (Volunteer 3) 17 mg/mL; (Volunteer 4) 27 mg/mL.
On to `C[N+]1(C)[C@@H]2CC[C@H]1C[C@@H](OC(=O)C(CO)c1ccccc1)C2` (some centres unmarked) [Ingredient B, atropine methonitrate], for which the PD40 reads like this: (Volunteer 1) 42 mg/mL; (Volunteer 2) 23 mg/mL; (Volunteer 3) 12 mg/mL; (Volunteer 4) 3.4 mg/mL.
